Paper PMC10492809, “A Bischler-Napieralski and homo-Mannich sequence enables diversified syntheses of sarpagine alkaloids and analogues” (Nature Communications, 2023)
“And” between values parts separate entries of the source, which are not always exact repeats. Equal values may be shown once. Read-outs that look alike come from different tables or passages of the source.

Tests used:
Type in all cases: cell-based
MDA-MB-231 = assay: MTT cell viability assay, MDA-MB-231
Protocol: (§1) All cell lines were cultured at 37 °C with 5% CO2 in a humidified incubator. HeLa cells were grown in MEM (Gibco) supplemented with 10% fetal bovine serum (FBS, Hyclone) and 1% penicillin/streptomycin (Gibco). MIA PaCa-2, MDA-MB-231, A549, MCF-7, A375 and BEAS-2B cells were grown in DMEM (Gibco) supplemented with 10% FBS and 1% penicillin/streptomycin. CT26, and HCT116 cells were grown in RPMI-1640 supplemented with 10% FBS and 1% penicillin/streptomycin. All cell lines were purchased from the National Collection of Authenticated Cell Cultures (China).
(§2) The antiproliferative activities of the prepared compounds against tested cell lines were evaluated using a standard (MTT)-based colorimetric assay. Cells were plated at a density of 3000 cells/well in 96-well plates and allowed to adhere overnight. Then cells were treated with varying concentrations of synthesized compounds for 72 h. At the end of treatment, 20 μL of thiazolyl blue tetrazolium bromide (MTT) solution (5 mg/mL) was added to each well. Cells were incubated for an additional 4 h at 37 °C and then the medium was removed and replaced with 200 μL of DMSO. The absorbance (OD490) was read on a microplate reader (SpectraMax i3x, Molecular Devices, US). In all experiments, three replicate wells were used for each drug concentration. Each assay was performed at least three times. The IC50 values were calculated by GraphPad Prism 9, which were the mean values derived from three independent experiments.

MDA-MB-231 cells [1] = assay: Measurement of glutathione levels
Protocol: Cells were plated at a density of 2 × 10^5 cells/well in 6-well plates and allowed to adhere overnight. After being treated as indicated, cells were collected and prepared for measurement of total intracellular glutathione (GSH + GSSG) using the assay kit (Beyotime, S0052) according to the manufacturer’s instructions. […]

SLC7A11 = assay: Western blotting, SLC7A11 protein expression; conditions: 15ai 0, 2, 4 and 8 μM, 24 h
Protocol: Cells on 6-well plates were rinsed twice with cold PBS and lysed in RIPA lysis buffer (50 mM Tris (pH 7.4), 150 mM NaCl, 1% Triton X-100, 1% deoxycholicphenyl methylsulfonyl fluoride, 5.0 mM sodium pyrophosphate, […] leupeptin, 0.1 mM phenylmethylsulfonyl fluoride, and1 mM DTT) containing a protease inhibitor (PMSF) mixture at 1:100 dilution on ice for 30 min. The insoluble components of cell lysates were removed by centrifugation (4 °C, 12000 × g, 10 min), and protein concentrations were measured using a Pierce BCA protein assay kit. Proteins were separated by sodium dodecyl sulfate-polyacrylamide gel electrophoresis (SDS-PAGE) and transferred onto polyvinylidene difluoride (PVDF) membranes. Membranes were blocked using 5% skim milk in TBST and then incubated with diluted indicated primary antibodies: anti-GPX4 (1:1000 dilution, Proteintech, Cat No: 30388-1-AP), anti-SLC7A11 (1:1000 dilution, ABclonal, Cat No: A13685), anti-GAPDH (1:1000 dilution, Wanlei, Cat No: WL01114) at 4 °C with gentle shaking overnight. After washing five times (5 min each) with TBST, membranes were incubated with the HRP conjugated goat anti rabbit IgG (H + L) (1:5000 dilution, Wanlei, Cat No: WLA023) for 1 h at rt. Immunoreactive bands were visualized using an ECL detection kit (Wanlei, Cat No: WLA006) following the manufacturer’s instruction on the ChemiDoc system (BioRad, Shanghai, China).

[2] = MTT cytotoxicity towards normal cells, BEAS-2B; conditions: human
Protocol: as §1, §2

MDA-MB-231 cells [3] = assay: Cell death manner assay (MTT, co-incubation with cell death inhibitors)
Protocol: [The source words this procedure for another cell line and reports this cell line under the same test.] To investigate the mechanism of 15ai in cancer cell proliferation inhibition, the manners of cell death were analyzed. The cell apoptosis inhibitor Z-VAD-FMK (Z-VAD), cell necrosis inhibitor Necrostatin-1 (Necro-1), ferroptosis inhibitor Ferrostatin-1 (Fer-1), and ROS inhibitor N-acetylcysteine (NAC) were purchased and stored at −20 °C. A375 cells were seeded with a density of 5000 cells/100 µL/well into 96 well plates. After 12 h, 15ai was added at different concentrations. Following that 10 µM Z-VAD, 10 µM Nerco-1, 10 µM Fer-1, and 5 mM NAC were added and co-incubated with 15ai, respectively, for 72 h. Then, 20 µL MTT solution (5 mg/mL) was added and incubated at 37 °C for an additional 4 h. Then, the supernatant was discarded, and 200 μL DMSO was added to dissolve the precipitate. After 15 min, the absorbance (OD490) was read on a microplate reader (SpectraMax i3x, Austria). In all experiments, three replicate wells were used for each drug concentration. Each assay was performed at least three times.

## C=C=C1CN2[C@H]3C[C@H]1[C@H](C=O)[C@@H]2Cc1c3n(S(=O)(=O)c2ccc(C)cc2)c2ccc(Cl)cc12 [Compound 15ai]
MDA-MB-231; Homo sapiens, MDA-MB-231, 72 h, MTT, 72 h, mean of at least three independent experiments, read-out: IC50 MDA-MB-231
  IC50: 2030 nM
MDA-MB-231; Homo sapiens, MDA-MB-231, source data sheet, single values of three experiments, read-out: MTT IC50 MDA-MB-231
  IC50: 1680 nM
MDA-MB-231; source data sheet, single values of three experiments, read-out: MTT IC50 MDA-MB-231
  IC50: 2110 nM and 2310 nM
MDA-MB-231 cells [1]; 15ai 4 μM per Fig. 4, single replicates
  GSH levels (% of control): 52.357 % of control and 54.35 % of control
MDA-MB-231 cells [1]; (15ai 2 μM per Fig. 4), single replicates
  GSH levels (% of control): 80.51 % of control and 78.85 % of control
MDA-MB-231 cells [1]; (15ai 8 μM per Fig. 4), single replicates
  GSH levels (% of control): 27.587 % of control and 22.5 % of control
MDA-MB-231 cells [1]; Homo sapiens, MDA-MB-231, column 2 (15ai 2 μM per Fig. 4), single replicates
  GSH level (% of control) at 2 µM: 84.6%
MDA-MB-231 cells [1]; Homo sapiens, MDA-MB-231, column 4 (15ai 4 μM per Fig. 4), single replicates
  GSH level (% of control) at 4 µM: 61.6%
MDA-MB-231 cells [1]; Homo sapiens, MDA-MB-231, column 8 (15ai 8 μM per Fig. 4), single replicates
  GSH level (% of control) at 8 µM: 23.2%
MDA-MB-231 cells [1]; result in words, 15ai 0, 2, 4 and 8 μM
  GSH levels: dose-dependently decreased
SLC7A11
  SLC7A11 level: dose-dependently decreased
[2]; BEAS-2B lung epithelial cells (normal cells), source data sheet, single values of three experiments
  IC50 at 72 h: > 100000 nM
[2]; BEAS-2B lung epithelial cells, MTT, 72 h, cytotoxicity towards normal cells, mean of at least three independent experiments
  CC50 at 72 h: > 100000 nM
MDA-MB-231 cells [3]; Homo sapiens, MDA-MB-231, 72 h, read-out: Percentage of viability, Fer-1 / NAC experiment, 15ai 10 μM, Fer-1 10 μM, NAC 5 mM, 72 h, single replicates
  viability at 10 µM: 21.2%
MDA-MB-231 cells [3]; MDA-MB-231 cells, addition of apoptosis inhibitor Z-VAD-FMK or necroptosis inhibitor necrostatin-1
  reversal of 15ai-induced cell death by Z-VAD or Necro-1: could not reverse cell death
MDA-MB-231 cells [3]; co-existence of ferroptosis inhibitor Fer-1 or ROS inhibitor NAC
  rescue of cell viability by Fer-1 or NAC: remarkably rescued cell viability
